Results as given in patent US9751885B2, “Cyclopropanamine compound and use thereof” (Takeda Pharmaceutical Company Limited, priority 2012, dated 2017).
Structures can show the parent of a compound that is named as a salt. Where two headings read alike, the source gives them in different places.

How the values were obtained:
[1] = Evaluation of hippocampal distribution in mouse; type: in vivo; details: male ICR mice, 10 mg/kg oral; for concentration at 0.5 h / Kp at 0.5 h: 0.5 hr after administration
Description: Evaluation of Hippocampal Distribution in Mouse
(§1) Male ICR mice (hereinafter mice) were acclimated for at least one week in a rearing facility. The mice were raised in a rearing room with controlled temperature and humidity under a 12:12 hour light-dark cycle, and allowed free ingestion of feed and water.
The compounds were suspended in 0.5% methylcellulose/0.02% citric acid/distilled water and orally administered. All compounds were administered to the mice at a dose of 10 mg/kg (body weight).
Blood samples were collected at 0.5 hr, or 1 hr, or 1.5 hr from compound administration, and the hippocampus was isolated simultaneously. The plasma concentration and hippocampus concentration of each test compound were measured by the LC/MS/MS method, the ratio (hippocampus/plasma concentration ratio) was calculated, and distribution into hippocampus was evaluated.

[2] = test system: white blood cell number, red blood cell number, platelet number; test: Evaluation of blood cell number in mouse; type: in vivo; details: oral, Day 2 after administration
Description: Evaluation of Blood Cell Number in Mouse
as §1
The compounds were suspended in 0.5% methylcellulose/0.02% citric acid/distilled water and orally administered. All compounds were administered to the mice at a dose of 1 mg/kg, 10 mg/kg, 50 mg/kg or 100 mg/kg (body weight). On Day 2 after the administration of the compound, the whole blood was collected.
Using Sysmex XT-1800i (Sysmex Corporation), the white blood cell number, red blood cell number, and platelet number in the collected whole blood per unit volume were measured. The influence of each compound on each blood cell number was determined by comparing the number with the mean of each blood cell number of the mouse without administration of the compound (control group), and the numerical value of each blood cell number of a mouse with the administration of the compound is shown in percentage. percentage (%) of blood cell number of compound administration group as compared to control group=(mean blood cell number of compound administration group mean blood cell number of compound non-administration group)×100

[3] = hippocampus, read-out: hippocampus concentration (mean)
[4] = hippocampus/plasma, read-out: hippocampus/plasma concentration ratio (mean)
[5] = plasma, read-out: plasma concentration (mean)

SMILES	concentration at 0.5 h [1, 3] [ng/g]	Kp at 0.5 h [1, 4]	concentration at 0.5 h [1, 5] [ng/mL]	platelet number, percentage of compound administration group compared to control group, mean ([2]; 10 mg/kg) [%]	red blood cell number, percentage of compound administration group compared to control group, mean ([2]; 10 mg/kg) [%]	white blood cell number, percentage of compound administration group compared to control group, mean ([2]; 10 mg/kg) [%]	platelet number, percentage of compound administration group compared to control group, mean ([2]; 100 mg/kg) [%]	red blood cell number, percentage of compound administration group compared to control group, mean ([2]; 100 mg/kg) [%]	white blood cell number, percentage of compound administration group compared to control group, mean ([2]; 100 mg/kg) [%]	concentration at 1 h ([1]; hippocampus, 1 hr after administration, read-out: hippocampus concentration (mean)) [ng/g]	Kp at 1 h ([1]; hippocampus/plasma, 1 hr after administration, read-out: hippocampus/plasma concentration ratio (mean))	concentration at 1 h ([1]; plasma, 1 hr after administration, read-out: plasma concentration (mean)) [ng/mL]
Cc1cc(NC(=O)c2cccc([C@@H]3C[C@H]3NC3CCOCC3)c2)on1 (relative stereo) [Example 235, N-(3-methyl-1,2-oxazol-5-yl)-3-(trans-2-(tetrahydro-2H-pyran-4-ylamino)cyclopropyl)benzamide hydrochloride]	216	1.04	204	99.1	101.1	75.7	96.6	97.8	93.0			
O=C(NC1CCC(F)(F)CC1)c1cccc([C@@H]2C[C@H]2NCC2CC2)c1 (relative stereo) [Example 102, 3-(trans-2-((cyclopropylmethyl)amino)cyclopropyl)-N-(4,4-difluorocyclohexyl)benzamide hydrochloride]				97.7	99.5	107.0	94.7	104.9	116.8	482	1.84	268
Cc1nnc(NC(=O)c2cccc([C@@H]3C[C@H]3NCC3CCOCC3)c2)s1 (relative stereo) [Example 112, N-(5-methyl-1,3,4-thiadiazol-2-yl)-3-(trans-2-((tetrahydro-2H-pyran-4-ylmethyl)amino)cyclopropyl)benzamide dihydrochloride]	614	0.36	1710	92.8	99.4	112.0	86.3	102.0	136.1			
